Results taken from PubChem BioAssay AID1963427 (Molecular Pharmacology Branch, DTP, NCI, 2024).

Test system: 317291-083-R-J1-PDC complex spheroid growth
Experiment: Anticancer human tumor 317291-083-R-J1-PDC patient-derived soft tissue sarcoma cell line growth inhibition [Asc]
Settings: for IC50: curve of first compound; for viability, T/C: stronger effect = lower value
In short: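 Complex spheroids combining tumor cells with HUVEC endothelial cells and human MSCs, at 37 degrees C, 5% CO2; agents tested alone or combined, half-log dilutions from at or near clinical Cmax, or 10 microM if Cmax unknown.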
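Note: compound exposure lasted seven days after spheroids formed for three days.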
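Throughout, for viability, T/C: 100% = DMSO vehicle control wells.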

## Cc1nc(N2CCC3(CC2)COC(C)C3N)c(CO)nc1Sc1ccnc(N)c1Cl (centres undefined) + CCN1C(C(=O)NC23CCC(C(=O)O)(CC2)CC3)C(c2cccc(Cl)c2F)C2(C(=O)Nc3cc(Cl)ccc32)C12CCCCC2
Second compound 0.00949 µM
  IC50: > 3000 nM
Second compound 0.03 µM
  IC50: 2830 nM
Second compound 0.0949 µM
  IC50: > 3000 nM
Second compound 0.3 µM
  IC50: > 3000 nM
Second compound 0.949 µM
  IC50: > 3000 nM
Second compound 3 µM
  IC50: 2740 nM
Second compound 0.00949 µM, first compound 0.00949 µM
  viability, T/C: 103%
Second compound 0.00949 µM, first compound 0.03 µM
  viability, T/C: 96%
Second compound 0.00949 µM, first compound 0.0949 µM
  viability, T/C: 94.9%
Second compound 0.00949 µM, first compound 0.3 µM
  viability, T/C: 74.2%
Second compound 0.00949 µM, first compound 0.949 µM
  viability, T/C: 95.7%
Second compound 0.00949 µM, first compound 3 µM
  viability, T/C: 53.6%
Second compound 0.03 µM, first compound 0.00949 µM
  viability, T/C: 108%
Second compound 0.03 µM, first compound 0.03 µM
  viability, T/C: 107%
Second compound 0.03 µM, first compound 0.0949 µM
  viability, T/C: 96.7%
Second compound 0.03 µM, first compound 0.3 µM
  viability, T/C: 90.8%
Second compound 0.03 µM, first compound 0.949 µM
  viability, T/C: 69%
Second compound 0.03 µM, first compound 3 µM
  viability, T/C: 49%
Second compound 0.0949 µM, first compound 0.00949 µM
  viability, T/C: 104%
Second compound 0.0949 µM, first compound 0.03 µM
  viability, T/C: 116%
Second compound 0.0949 µM, first compound 0.0949 µM
  viability, T/C: 92.5%
Second compound 0.0949 µM, first compound 0.3 µM
  viability, T/C: 78.9%
Second compound 0.0949 µM, first compound 0.949 µM
  viability, T/C: 70.8%
Second compound 0.0949 µM, first compound 3 µM
  viability, T/C: 69.4%
Second compound 0.3 µM, first compound 0.00949 µM
  viability, T/C: 120%
Second compound 0.3 µM, first compound 0.03 µM
  viability, T/C: 106%
Second compound 0.3 µM, first compound 0.0949 µM
  viability, T/C: 95.5%
Second compound 0.3 µM, first compound 0.3 µM
  viability, T/C: 97.9%
Second compound 0.3 µM, first compound 0.949 µM
  viability, T/C: 73.7%
Second compound 0.3 µM, first compound 3 µM
  viability, T/C: 56.1%
Second compound 0.949 µM, first compound 0.00949 µM
  viability, T/C: 86.1%
Second compound 0.949 µM, first compound 0.03 µM
  viability, T/C: 113%
Second compound 0.949 µM, first compound 0.0949 µM
  viability, T/C: 93.4%
Second compound 0.949 µM, first compound 0.3 µM
  viability, T/C: 84.8%
Second compound 0.949 µM, first compound 0.949 µM
  viability, T/C: 75.7%
Second compound 0.949 µM, first compound 3 µM
  viability, T/C: 59.2%
Second compound 3 µM, first compound 0.00949 µM
  viability, T/C: 82.2%
Second compound 3 µM, first compound 0.03 µM
  viability, T/C: 81.7%
Second compound 3 µM, first compound 0.0949 µM
  viability, T/C: 82.8%
Second compound 3 µM, first compound 0.3 µM
  viability, T/C: 82.3%
Second compound 3 µM, first compound 0.949 µM
  viability, T/C: 66.7%
Second compound 3 µM, first compound 3 µM
  viability, T/C: 48.5%

## O=C(c1cc(Cc2n[nH]c(=O)c3ccccc23)ccc1F)N1CCN(C(=O)C2CC2)CC1 + CNC(C)C(=O)NC1CN(S(=O)(=O)c2cccc(S(=O)(=O)N3CCC4CCC(C(=O)NC(c5ccccc5)c5ccccc5)N4C(=O)C(NC(=O)C(C)NC)C3)c2)CCC2CCC(C(=O)NC(c3ccccc3)c3ccccc3)N2C1=O
Second compound 0.00316 µM
  IC50: < 31.6 nM
Second compound 0.01 µM
  IC50: < 31.6 nM
Second compound 0.0316 µM
  IC50: 3590 nM
Second compound 0.1 µM
  IC50: 743 nM
Second compound 0.316 µM
  IC50: 31.6 nM
Second compound 1 µM
  IC50: < 31.6 nM
Second compound 0.00316 µM, first compound 0.0316 µM
  viability, T/C: 4.34%
Second compound 0.00316 µM, first compound 0.1 µM
  viability, T/C: 4.85%
Second compound 0.00316 µM, first compound 0.316 µM
  viability, T/C: 5.04%
Second compound 0.00316 µM, first compound 1 µM
  viability, T/C: 5.11%
Second compound 0.00316 µM, first compound 3.16 µM
  viability, T/C: 4.26%
Second compound 0.00316 µM, first compound 10 µM
  viability, T/C: 4.12%
Second compound 0.01 µM, first compound 0.0316 µM
  viability, T/C: 37%
Second compound 0.01 µM, first compound 0.1 µM
  viability, T/C: 43.8%
Second compound 0.01 µM, first compound 0.316 µM
  viability, T/C: 55.6%
Second compound 0.01 µM, first compound 1 µM
  viability, T/C: 33.9%
Second compound 0.01 µM, first compound 3.16 µM
  viability, T/C: 16.4%
Second compound 0.01 µM, first compound 10 µM
  viability, T/C: 16.1%
Second compound 0.0316 µM, first compound 0.0316 µM
  viability, T/C: 65.5%
Second compound 0.0316 µM, first compound 0.1 µM
  viability, T/C: 67.9%
Second compound 0.0316 µM, first compound 0.316 µM
  viability, T/C: 62%
Second compound 0.0316 µM, first compound 1 µM
  viability, T/C: 58.1%
Second compound 0.0316 µM, first compound 3.16 µM
  viability, T/C: 55.2%
Second compound 0.0316 µM, first compound 10 µM
  viability, T/C: 23.9%
Second compound 0.1 µM, first compound 0.0316 µM
  viability, T/C: 78.5%
Second compound 0.1 µM, first compound 0.1 µM
  viability, T/C: 71.3%
Second compound 0.1 µM, first compound 0.316 µM
  viability, T/C: 57.7%
Second compound 0.1 µM, first compound 1 µM
  viability, T/C: 54.7%
Second compound 0.1 µM, first compound 3.16 µM
  viability, T/C: 23.4%
Second compound 0.1 µM, first compound 10 µM
  viability, T/C: 34.9%
Second compound 0.316 µM, first compound 0.0316 µM
  viability, T/C: 52%
Second compound 0.316 µM, first compound 0.1 µM
  viability, T/C: 44.4%
Second compound 0.316 µM, first compound 0.316 µM
  viability, T/C: 44.8%
Second compound 0.316 µM, first compound 1 µM
  viability, T/C: 50.8%
Second compound 0.316 µM, first compound 3.16 µM
  viability, T/C: 17.4%
Second compound 0.316 µM, first compound 10 µM
  viability, T/C: 21.4%
Second compound 1 µM, first compound 0.0316 µM
  viability, T/C: 34.3%
Second compound 1 µM, first compound 0.1 µM
  viability, T/C: 47.7%
Second compound 1 µM, first compound 0.316 µM
  viability, T/C: 34.8%
Second compound 1 µM, first compound 1 µM
  viability, T/C: 27.9%
Second compound 1 µM, first compound 3.16 µM
  viability, T/C: 13.2%
Second compound 1 µM, first compound 10 µM
  viability, T/C: 13.8%
